This assay relates to FP receptor. In words: porcine eyecup model of ex vivo vasomotricity assay, PGF2α-induced constriction of retinal microvessels. The source says:
In order to see if the peptides could inhibit FP function using an ex vivo model, we chose porcine eyecup model, an ex vivo assay of vascular constriction in porcine retinas which we previously described and validated (Li et al., 1996 J. Pharmacol. Expt. Therapeut. 278: 370-377; Li et al., 1997 Am. J. Physiol. 273: R1283-90; Abran et al., 1997 Am. J. Physiol. 272: R995-1001). Since FP receptor densities in newborn vasculature are minimal due to down regulation by high levels of circulating prostaglandins in the perinatal period, the newborn pigs were treated with a prostaglandin synthetase blocker, ibuprofen (30 mg/Kg of bodyweight/ 8 h for 24 h) to increase the density of the receptors as well as their vasomotor effects. By inhibiting circulating prostaglandins; we were able to show potent inhibition of FP receptor-mediated second messenger synthesis as well as FP-mediated vascular constriction in this eyecup model.
The preparations were allowed to stabilize for 30 min.
Vascular diameter was recorded before and 10 min following the topical application of the agent.
Small letters indicate L-amino acids and capital letters indicate D- amino acids. I = isoleucine; L= leucine; G =glycine; H=histidine, R=Arginine; D=Aspartic acid; Y=Tyrosine; […]; A-Alanine; W= Tryptophan; E-Glutamic acid; F= Phenyl alanine; Q=Glutamine; N=Aspargine; P=Proline; S=Serine; X=Cyclohexyl alanine.

For “ILGHKDYK [PCP-13.13, R to K variant of PCP-13]”, the “%Vasomotor response (of constriction)” value (100 µM peptide added 30 min before 10^-7 M PGF2α, relative to maximal constriction in the absence of peptide) is reported as 36.9%. Also, the “% inhibition of maximal max. response” value (100 µM peptide, 10^-7 M PGF2α, calculated as 100 - per cent vasomotor response) is 63.1%. For the same sequence, for the setting “peptides at 100 µM, compared with PCP-13 (PCP-13 and PCP-11 with PCP-8, PCP-12 with PCP-10)”, the “change of inhibitory activity relative to the parent peptide (in words)” value is recorded as “affected the activity of PCP-13 moderately”.
